# From patent publication US20250213700A1, “COMPOUNDS, COMPOSITIONS, AND METHODS FOR CELL-SPECIFIC PHARMACOLOGY” (Duke University, priority 2022, published 2025)
# Columns and labels:
# endogenous AMPARs = assay: all-optical cultured-neuron assay of AMPAR-dependent synaptic transmission; type: cell-based, rat; conditions: DW=Rx50/HTL50
# Experimental: Cultured neuronal assays: Preparation of hippocampal cultures: Mixed glial and neuronal cultures were prepared from the hippocampus of postnatal day 0 to 1 Sprague-Dawley rat pups. Separate pools of dissociated cells were transfected via electroporation (LONZA, V4SP-3096) with plasmid constructs, and depending on assay directives, either plated individually or mixed with a different pool of electroporated cells after a 10 min recovery period. Cells were cultured on coverslips (Deckglaser) pre-treated with high molecular weight poly-D-lysine (Sigma, P7405; 0.05 mg/mL) in 24-well plates and maintained in NbActiv4 (BrainBits, Nb4-500) at 37 C, 5% CO2. Media was changed by half at DIV3 or 4 and then weekly thereafter; experiments were performed between DIV16 to DIV18.
# [1] = system: +HTP somatostatin interneurons and -HTP neurons of V1 visual cortex; assay: 2P calcium imaging of V1 visual responses after contralateral ventricle infusion, SOM-Cre mice; type: in vivo, mouse
# Experimental: Top left: Mice expressing pan-neuronal GCaMP8s with SOM-specific ^+HTP. Window over V1. DART delivered via the contralateral ventricle. Bottom left: In-vivo and ex-vivo expression and dye capture. Right: Mice presented oriented visual gratings, 2P Ca^2+ imaging obtained before and 5-6 hr after infusion of 0.3 nmole Alexa647.1^DART.2+3 nmole YM90K.1^DART.2 (2 μL volume) into the contralateral ventricle.
# Next, it was examined whether this strategy could deliver a pharmacologically active DART to genetically defined cells. A surgery was performed in which AAV DIO +HTPGPI was injected into the V1 visual cortex of SOM-Cre mice for cell-specific expression in somatostatin interneurons, along with a co-injected AAV-GCaMP8s virus for pan-neuronal neural activity monitoring. A cannula was implanted in the contralateral ventricle, and glass window over V1. Following surgical recovery, a mixture of YM90K.1DART.2+Alexa647.1DART.2 was infused. […] To test for pharmacological effects, 2P calcium imaging of +HTP and −HTP was performed while mice were presented with oriented gratings. A reduction in +HTP visual response was apparent 4 hours post DART infusion. This reduction persisted even after 24 hours post infusion.
# GABAAR = assay: VTA slice, evoked GABAAR IPSCs on midbrain dopamine neurons; type: cell-based, mouse; conditions: 300 nM (FIG. 4E)
# From the text: FIG. 4A-4F show the DART.2 platform can enable safe use of epileptogenic pharmaceuticals in awake behaving animals. (FIG. 4A) Validation of gabazine.1^DART.2 in cerebellar slice. Top: voltage-clamp schematic. Bottom: tonic GABAAR in granule cells expressing ^+HTP or ^ddHTP. […] Data are mean±SEM, cells normalized to baseline. (FIG. 4B) In vivo delivery of gabazine.1^DART.2 to cerebellar granule cells. Top right: schematic of experimental approach, GCaMP6f granule-cell activity obtained in the absence of sensory stimuli. Top left: example field of view, GCaMP6f signal averaged across trials. Bottom: example calcium traces (ΔF/F) in an awake ^+HTP mouse before (baseline) and after (1 μL of 1 μM gabazine.1^DART.2) infusion. (FIG. 4C) In vivo, 1 μL of 1 μM gabazine.1^DART.2 to ^+HTP mice. Color indicates ΔF/F, each row is one cell before (left) and after (right) gabazine.1^DART.2 infusion. Full dataset from 6 mice (n=1707 cells, p<0.0001, paired t-test, before vs after infusion). (FIG. 4D) In vivo, 1 μL of 1 μM gabazine.1^DART.2 to ^ddHTP mice. Format as in panel C. Full dataset from 4 mice (n=1084 cells, p=0.76, paired t-test, before vs after infusion). (FIG. 4E) Validation of gabazine.7^DART.2 in VTA slice. Top: evoked-IPSC configuration. […] Data are mean±SEM, cells normalized to baseline. Control experiments confirmed the GABAAR specificity of the manipulation. […] Data are mean±SEM, normalized to baseline speed of each animal.
# Electrophysiology. Preparation of Brain slices: Mice (8-10 weeks) were injected AAV10 HaloTag™-dTomato to striatum or ventral tegmental area (VTA). After 3-5 weeks, mice were deeply anesthetized with isoflurane and euthanized by decapitation. Coronal brain slices ([…]) containing striatum or VTA were prepared by standard methods using a Vibratome (Leica, VT 1200S), in ice-cold high sucrose cutting solution containing (in mM) 220 sucrose, 3 KCl, 1.25 NaH2PO4, 25 NaHCO3, 12 MgSO4.7H2O, 10 glucose, and 0.2 CaCl2) bubbled with 95% O2 and 5% CO2. The slices were placed into modified artificial cerebrospinal fluid (aCSF) containing (in mM): 120 NaCl, 3.3 KCl, 1.23 NaH2PO4, 1 MgSO4, 2 CaCl2), 25 NaHCO3, and 10 glucose at pH 7.3, previously saturated with 95% O2 and 5% CO2. For recovery, the slices were incubated at 33° C. for 40-60 min in the bubbled ACSF solution and then allowed to cool to room temperature (22-24° C.) until the recordings were initiated.
# Whole-cell patch-clamp recording: The brain slices or retinas were perfused with bubbled aCSF at 29-30° C. with a 2 ml/min flow rate. Recordings were made by whole cell patch recording techniques using a Multiclamp 700B amplifier (Molecular Devices, Axon Instruments Inc., Union City, CA). The signals were filtered at 10 KHz and acquired using Digitate 1440A and pClamp 10.7 (Molecular Devices). […]
# [2] = 5-6 hr after infusion of 3 nmole with 0.3 nmole Alexa647.1DART.2
SMILES,widening of Dosing Window vs DART.1 reagent (endogenous AMPARs) [fold],"DW (t=15 m) (endogenous AMPARs; ddHTP vs +HTP cells, 15 min)","responses in +HTP SOM cells [1, 2]","responses in -HTP putative pyramidal cells [1, 2]",+HTP visual response ([1]; 4 hours post DART infusion),-HTP cells visual response ([1]; 24 hours post infusion),"+HTP cells visual response relative to pre-DART ([1]; 24 hours post infusion, 50% contrast)","evoked GABAAR current (IPSCs), +HTP neurons (GABAAR)","evoked GABAAR current (IPSCs), ddHTP cells (GABAAR)","evoked GABAAR current (IPSCs), +HTP neurons (GABAAR; listed as gabazine.7^DART.2)","evoked GABAAR current (IPSCs), ddHTP cells (GABAAR; listed as gabazine.7^DART.2)"
COc1cc(CCCCl)ccc1CCOCCNC(=O)c1ccc(CNC(=O)CCOCCOCCOCCOCCOCCOCCOCCOCCOCCOCCOCCOCCOCCOCCOCCOCCOCCOCCOCCOCCOCCOCCOCCOCCOCCOCCOCCOCCOCCOCCOCCOCCOCCOCCOCCOCCn2cc(COCCOCCOCCOCCOCCOCCNC(=O)CCCn3c(=O)c(=O)[nH]c4cc([N+](=O)[O-])c(-n5ccnc5)cc43)nn2)cc1 [YM90K.1DART.2],10,300,reduced,unchanged or increased,reduction,no change or increase in visual response,decrease in visual response,,,,
COc1cc(CCCCl)ccc1CCOCCNC(=O)c1ccc(CNC(=O)CCOCCOCCOCCOCCOCCOCCOCCOCCOCCOCCOCCOCCOCCOCCOCCOCCOCCOCCOCCOCCOCCOCCOCCOCCOCCOCCOCCOCCOCCOCCOCCOCCOCCOCCOCCOCCn2cc(COCCOCCOCCOCCOCCOCCOCCCCCCOc3ccc(-c4nn(CCCCC(=O)O)c(=N)cc4C)cc3)nn2)cc1 [gabazine.7DART.2],,,,,,,,pronounced block of evoked GABAAR current,no measurable effect on ddHTP cells,nearly complete block of evoked IPSCs,no impact on ^ddHTP cells
